Assay results reported in US12551495B2, “Phytoecdysones and derivatives thereof for use in treating disordered respiratory function on viral infection” (priority 2020, dated 2026).

Legend:
Mas receptor = target: T1, Mas receptor (Homo sapiens, UniProt P04201); conditions: Dilda et al. 2019; cited from earlier work
T1 sequence (P04201 1-325): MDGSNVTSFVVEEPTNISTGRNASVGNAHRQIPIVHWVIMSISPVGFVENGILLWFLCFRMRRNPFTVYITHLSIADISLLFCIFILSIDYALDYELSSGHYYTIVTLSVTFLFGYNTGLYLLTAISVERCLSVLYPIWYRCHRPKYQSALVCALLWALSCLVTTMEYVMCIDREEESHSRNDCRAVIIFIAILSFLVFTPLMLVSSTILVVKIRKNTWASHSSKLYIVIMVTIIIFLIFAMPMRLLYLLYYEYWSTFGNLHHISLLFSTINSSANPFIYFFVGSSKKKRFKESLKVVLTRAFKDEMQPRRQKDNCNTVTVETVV

[1] = test system: mouse model of acute lung injury (ALI); conditions: Xia et al. 2016, Song et al. 2019; cited from earlier work
[2] = test system: hypertensive type SH (spontaneously hypertensive) rats; assay: Mean arterial pressure by telemetry in spontaneously hypertensive rats, single oral administration; assay type: in vivo, rat; conditions: Enalapril 50 mg/kg
Procedure: The effects of BIO101 alone were evaluated after a single oral administration. Six SH rats were used in crossover treatments with an elimination period of a minimum of 72 hours between treatments. Prior to the treatment, the animals were equipped with telemetry instruments for measuring arterial pressure. For the experiment described in FIG. 2A the animals received the following treatments: vehicle, either BIO101 at 5 mg/kg, or BIO101 at 50 mg/kg, or Enalapril at 50 mg/kg.
The inventors tested the phytoecdysones and more particularly BIO101 on the mean arterial pressure by telemetry, in hypertensive animals after oral administration at the doses of 5 and 50 mg/kg. The study relates to hypertensive type SH (spontaneously hypertensive) rats.
BIO101 therefore has no anti-hypertensive effect.

SMILES	activity on Mas receptor (Mas receptor)	anti-inflammatory cytokines (IL-4, IL-10) [1]	lung injuries (histological examination) [1]	plasmatic inflammatory cytokines (TNF-α, IL-2, IL-6, IL-8) [1]	anti-hypertensive activity (mean arterial pressure) [2]
CC(C)(O)CC[C@@H](O)[C@](C)(O)[C@H]1CC[C@@]2(O)C3=CC(=O)[C@@H]4C[C@@H](O)[C@@H](O)C[C@]4(C)[C@H]3CC[C@]12C [20-hydroxyecdysone]	activates	increased	reduction in lung injuries	reduced	–
CCOC(=O)[C@H](CCc1ccccc1)N[C@@H](C)C(=O)N1CCC[C@H]1C(=O)O [Enalapril]	–	–	–	–	has an anti-hypertensive activity
